{
  "source": "patent US20230312529A1",
  "about": "“PYRIMIDINE SMALL-MOLECULE COMPOUND AND APPLICATION THEREOF” (WENZHOU MEDICAL UNIVERSITY, priority 2021, published 2023)",
  "key": {"[1]": {"system": "MG-63 osteosarcoma cells", "assay": "MTT assay on osteosarcoma cells", "format": "cell-based", "conditions": "Homo sapiens, 48 hours, read-out: Inhibitory activity (IC50) MG-63", "protocol": "(§1) Logarithmic osteosarcoma cells were inoculated into a 96-well plate with a cell concentration of 1,500 cell/well for 6 hours by using MTT assay, and each well was filled with 200 μL of cell suspension. […] The samples were cultured in an incubator for 48 hours (37° C., 5% CO2), and 20 v L of MTT (3-(4,5-dimethylthiazole-2)-2,5-diphenyltetrazole) were added into each hole. After continuous culture for 4 hours, the culture solution was discarded by suction, and 200 v L of DMSO were added to each well. […] Calculation method of IC50 value: the IC50 values of the samples were calculated by curve fitting with GraphPad Prism software."}, "[2]": {"system": "SAOS-2 osteosarcoma cells", "assay": "MTT assay on osteosarcoma cells", "format": "cell-based", "conditions": "Homo sapiens, 48 hours, read-out: Inhibitory activity (IC50) SAOS-2", "protocol": "as §1"}, "[3]": {"system": "U2OS osteosarcoma cells", "assay": "MTT assay on osteosarcoma cells", "format": "cell-based", "conditions": "Homo sapiens, 48 hours, read-out: Inhibitory activity (IC50) U2OS", "protocol": "as §1"}, "[4]": {"system": "MNNG/HOS osteosarcoma cells", "assay": "MTT assay on osteosarcoma cells", "format": "cell-based", "conditions": "48 hours, read-out: Inhibitory activity (IC50) MNNG/HOS", "protocol": "as §1"}, "[5]": {"system": "human cerebrovascular pericytes (HBVP)", "assay": "MTT assay on human neovascular cells", "format": "cell-based"}, "[6]": {"target": "BTK (Homo sapiens (Human), UniProt Q06187)", "assay": "Kinase selectivity test", "format": "biochemical", "conditions": "100 nM", "protocol": "(§2) The method adopted in the test was Caliper Mobility Shift Assay, which was a detection platform based on the mobility detection technology of microfluidic chip technology. Test steps: 1.25× kinase reaction buffer (62.5 mmol/L HEPES, pH 7.5; 0.001875% Brij-35; 12.5 mmol/L MgCl2; 2.5 mM DTT) and kinase reaction stop solution (100 mmol/L HEPES, pH 7.5; 0.015% Brij-35; 0.2% Coating Reagent #3) were configured. […] Collected data was tested on Caliper to yield that inhibition ratio to kinase activity=(max−conversion)/(max−min)×100. “max” was DMSO control without adding compound, and “min” was low control. When IC50 was determined, each sample was provided with 10 dilutions, each with 2 multiple holes, and repeated for 3 times.\n(§3) According to the above-mentioned method for measuring kinase inhibitory activity, the inhibitory activity of the active compounds on other multiple kinases was measured to characterize the kinase selectivity of active inhibitors."}, "[7]": {"target": "SRC (Homo sapiens (Human), UniProt P12931)", "sequence (P12931 whole entry, looked up, species assumed)": "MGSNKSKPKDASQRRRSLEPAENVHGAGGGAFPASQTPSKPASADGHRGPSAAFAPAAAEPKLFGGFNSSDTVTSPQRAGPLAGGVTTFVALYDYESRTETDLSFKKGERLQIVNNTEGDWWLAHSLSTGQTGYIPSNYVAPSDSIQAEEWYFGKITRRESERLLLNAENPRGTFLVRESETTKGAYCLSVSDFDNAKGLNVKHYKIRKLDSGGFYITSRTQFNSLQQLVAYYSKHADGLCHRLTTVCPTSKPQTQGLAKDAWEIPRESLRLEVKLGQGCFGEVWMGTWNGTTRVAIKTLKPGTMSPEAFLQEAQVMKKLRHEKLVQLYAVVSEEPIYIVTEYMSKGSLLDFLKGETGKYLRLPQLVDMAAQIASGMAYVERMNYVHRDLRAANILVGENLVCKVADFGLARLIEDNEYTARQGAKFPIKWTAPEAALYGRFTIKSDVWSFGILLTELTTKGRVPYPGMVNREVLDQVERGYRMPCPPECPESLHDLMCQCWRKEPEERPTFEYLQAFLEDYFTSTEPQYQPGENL", "assay": "Kinase selectivity test", "format": "biochemical", "conditions": "100 nM", "protocol": "as §2, §3"}, "[8]": {"target": "KDR (Homo sapiens (Human), UniProt P35968)", "sequence (P35968 20-1356, species assumed)": "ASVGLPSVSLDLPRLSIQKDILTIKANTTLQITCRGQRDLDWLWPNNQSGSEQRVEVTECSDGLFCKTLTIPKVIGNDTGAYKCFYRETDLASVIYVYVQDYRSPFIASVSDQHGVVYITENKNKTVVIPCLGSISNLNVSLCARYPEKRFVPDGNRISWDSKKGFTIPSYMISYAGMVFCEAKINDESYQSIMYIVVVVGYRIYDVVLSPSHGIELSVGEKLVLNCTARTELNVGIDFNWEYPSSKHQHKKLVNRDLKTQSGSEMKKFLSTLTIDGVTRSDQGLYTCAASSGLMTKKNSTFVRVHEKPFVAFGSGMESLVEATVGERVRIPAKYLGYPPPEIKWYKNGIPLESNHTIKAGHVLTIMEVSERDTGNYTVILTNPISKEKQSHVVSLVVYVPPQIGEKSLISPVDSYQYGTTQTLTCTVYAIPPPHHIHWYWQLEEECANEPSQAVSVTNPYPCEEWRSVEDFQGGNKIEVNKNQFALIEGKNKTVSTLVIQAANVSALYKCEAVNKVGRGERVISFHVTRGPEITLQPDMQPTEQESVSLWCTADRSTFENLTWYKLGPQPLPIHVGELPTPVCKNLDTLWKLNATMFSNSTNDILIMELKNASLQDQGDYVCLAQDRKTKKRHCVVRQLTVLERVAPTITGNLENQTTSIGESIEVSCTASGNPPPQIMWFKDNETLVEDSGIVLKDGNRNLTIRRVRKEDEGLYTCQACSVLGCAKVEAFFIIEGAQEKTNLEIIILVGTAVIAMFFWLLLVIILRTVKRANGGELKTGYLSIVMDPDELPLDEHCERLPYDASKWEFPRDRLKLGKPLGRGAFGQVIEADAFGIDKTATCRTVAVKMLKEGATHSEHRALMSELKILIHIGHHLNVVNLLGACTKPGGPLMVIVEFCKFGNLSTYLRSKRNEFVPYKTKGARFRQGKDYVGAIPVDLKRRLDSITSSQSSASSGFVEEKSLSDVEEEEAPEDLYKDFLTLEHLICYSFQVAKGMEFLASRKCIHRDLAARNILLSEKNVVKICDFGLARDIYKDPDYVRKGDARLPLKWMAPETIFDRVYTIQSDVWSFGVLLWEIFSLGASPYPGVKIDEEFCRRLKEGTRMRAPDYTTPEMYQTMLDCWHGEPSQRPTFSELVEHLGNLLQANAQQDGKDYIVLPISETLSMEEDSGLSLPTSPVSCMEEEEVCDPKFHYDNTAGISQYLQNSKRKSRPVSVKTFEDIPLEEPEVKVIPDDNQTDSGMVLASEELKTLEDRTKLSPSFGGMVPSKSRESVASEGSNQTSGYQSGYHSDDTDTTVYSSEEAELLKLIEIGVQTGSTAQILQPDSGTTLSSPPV", "assay": "Kinase selectivity test", "format": "biochemical", "conditions": "100 nM", "protocol": "as §2, §3"}, "[9]": {"target": "FLT1 (Homo sapiens (Human), UniProt P17948)", "assay": "Kinase selectivity test", "format": "biochemical", "conditions": "100 nM", "protocol": "as §2, §3"}, "[10]": {"target": "EGFR (Homo sapiens (Human), UniProt P00533)", "assay": "Kinase selectivity test", "format": "biochemical", "conditions": "100 nM", "protocol": "as §2, §3"}, "[11]": {"target": "EGFR T790M (Homo sapiens (Human), UniProt P00533, T790M)", "sequence (P00533 25-1210 T790M)": "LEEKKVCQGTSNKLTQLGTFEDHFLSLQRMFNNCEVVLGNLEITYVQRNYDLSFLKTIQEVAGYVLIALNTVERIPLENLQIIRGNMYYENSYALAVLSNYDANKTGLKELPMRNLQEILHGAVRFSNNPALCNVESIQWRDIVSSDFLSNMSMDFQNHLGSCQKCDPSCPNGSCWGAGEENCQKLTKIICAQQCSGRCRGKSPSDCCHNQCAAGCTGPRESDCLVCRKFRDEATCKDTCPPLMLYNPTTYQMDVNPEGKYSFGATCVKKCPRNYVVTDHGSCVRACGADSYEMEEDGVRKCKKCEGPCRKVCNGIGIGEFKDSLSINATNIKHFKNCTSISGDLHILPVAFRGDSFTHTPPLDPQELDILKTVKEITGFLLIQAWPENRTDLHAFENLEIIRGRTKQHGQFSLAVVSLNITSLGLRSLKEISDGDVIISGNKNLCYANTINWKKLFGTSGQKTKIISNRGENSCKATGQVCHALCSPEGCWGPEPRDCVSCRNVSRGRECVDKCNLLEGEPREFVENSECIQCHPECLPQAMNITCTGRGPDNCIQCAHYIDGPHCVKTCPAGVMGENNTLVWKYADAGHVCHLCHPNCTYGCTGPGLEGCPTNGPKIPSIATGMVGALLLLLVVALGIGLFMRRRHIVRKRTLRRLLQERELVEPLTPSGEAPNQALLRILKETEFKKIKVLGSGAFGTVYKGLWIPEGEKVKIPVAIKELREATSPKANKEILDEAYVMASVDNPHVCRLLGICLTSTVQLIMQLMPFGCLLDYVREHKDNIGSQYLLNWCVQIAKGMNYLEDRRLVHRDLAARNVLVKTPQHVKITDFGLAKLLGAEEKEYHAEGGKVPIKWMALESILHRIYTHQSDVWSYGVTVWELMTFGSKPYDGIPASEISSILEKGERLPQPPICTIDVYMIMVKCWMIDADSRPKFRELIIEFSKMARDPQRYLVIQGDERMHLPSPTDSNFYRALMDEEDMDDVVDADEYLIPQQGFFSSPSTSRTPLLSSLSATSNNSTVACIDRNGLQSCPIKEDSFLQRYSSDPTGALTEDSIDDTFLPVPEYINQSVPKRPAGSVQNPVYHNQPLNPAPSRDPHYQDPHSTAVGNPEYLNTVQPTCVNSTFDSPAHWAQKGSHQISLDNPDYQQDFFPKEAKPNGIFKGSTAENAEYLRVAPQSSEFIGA", "assay": "Kinase selectivity test", "format": "biochemical", "conditions": "100 nM", "protocol": "as §2, §3"}, "[12]": {"target": "EGFR/T790M/L858R (Homo sapiens (Human), UniProt P00533, L858R/T790M)", "sequence (P00533 25-1210 T790M/L858R)": "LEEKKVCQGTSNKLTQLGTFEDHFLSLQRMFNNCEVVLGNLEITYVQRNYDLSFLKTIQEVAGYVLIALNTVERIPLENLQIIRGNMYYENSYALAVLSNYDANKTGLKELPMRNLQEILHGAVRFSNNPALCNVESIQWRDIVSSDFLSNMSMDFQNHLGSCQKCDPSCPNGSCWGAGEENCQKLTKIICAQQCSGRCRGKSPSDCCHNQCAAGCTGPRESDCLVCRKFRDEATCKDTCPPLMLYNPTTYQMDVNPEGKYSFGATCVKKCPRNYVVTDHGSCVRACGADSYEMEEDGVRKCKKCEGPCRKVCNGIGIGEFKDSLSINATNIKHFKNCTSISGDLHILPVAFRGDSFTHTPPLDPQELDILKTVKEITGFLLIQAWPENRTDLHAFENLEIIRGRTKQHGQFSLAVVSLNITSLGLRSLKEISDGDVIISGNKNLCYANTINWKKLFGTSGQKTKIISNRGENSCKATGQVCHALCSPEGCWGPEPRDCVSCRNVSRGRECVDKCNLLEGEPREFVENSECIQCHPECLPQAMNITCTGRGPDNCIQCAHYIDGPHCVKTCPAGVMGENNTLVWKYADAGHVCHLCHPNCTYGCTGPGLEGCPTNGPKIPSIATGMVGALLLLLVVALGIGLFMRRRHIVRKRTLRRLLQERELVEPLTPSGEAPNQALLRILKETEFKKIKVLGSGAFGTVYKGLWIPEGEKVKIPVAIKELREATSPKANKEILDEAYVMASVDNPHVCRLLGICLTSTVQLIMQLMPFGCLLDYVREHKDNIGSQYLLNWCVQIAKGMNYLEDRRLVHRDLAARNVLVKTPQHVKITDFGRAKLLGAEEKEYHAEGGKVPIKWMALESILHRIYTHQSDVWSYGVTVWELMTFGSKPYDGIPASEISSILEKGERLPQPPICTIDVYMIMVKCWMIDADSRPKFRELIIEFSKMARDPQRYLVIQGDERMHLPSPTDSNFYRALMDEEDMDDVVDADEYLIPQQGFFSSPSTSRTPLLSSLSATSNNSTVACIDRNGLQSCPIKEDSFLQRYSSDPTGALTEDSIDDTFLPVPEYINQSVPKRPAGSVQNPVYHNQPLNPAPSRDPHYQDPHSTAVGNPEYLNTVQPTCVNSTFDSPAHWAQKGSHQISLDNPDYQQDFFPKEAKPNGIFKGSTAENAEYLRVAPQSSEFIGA", "assay": "Kinase selectivity test", "format": "biochemical", "conditions": "100 nM", "protocol": "as §2, §3"}, "[13]": {"target": "FGFR1 (Homo sapiens (Human), UniProt P11362)", "sequence (P11362 22-822, species assumed)": "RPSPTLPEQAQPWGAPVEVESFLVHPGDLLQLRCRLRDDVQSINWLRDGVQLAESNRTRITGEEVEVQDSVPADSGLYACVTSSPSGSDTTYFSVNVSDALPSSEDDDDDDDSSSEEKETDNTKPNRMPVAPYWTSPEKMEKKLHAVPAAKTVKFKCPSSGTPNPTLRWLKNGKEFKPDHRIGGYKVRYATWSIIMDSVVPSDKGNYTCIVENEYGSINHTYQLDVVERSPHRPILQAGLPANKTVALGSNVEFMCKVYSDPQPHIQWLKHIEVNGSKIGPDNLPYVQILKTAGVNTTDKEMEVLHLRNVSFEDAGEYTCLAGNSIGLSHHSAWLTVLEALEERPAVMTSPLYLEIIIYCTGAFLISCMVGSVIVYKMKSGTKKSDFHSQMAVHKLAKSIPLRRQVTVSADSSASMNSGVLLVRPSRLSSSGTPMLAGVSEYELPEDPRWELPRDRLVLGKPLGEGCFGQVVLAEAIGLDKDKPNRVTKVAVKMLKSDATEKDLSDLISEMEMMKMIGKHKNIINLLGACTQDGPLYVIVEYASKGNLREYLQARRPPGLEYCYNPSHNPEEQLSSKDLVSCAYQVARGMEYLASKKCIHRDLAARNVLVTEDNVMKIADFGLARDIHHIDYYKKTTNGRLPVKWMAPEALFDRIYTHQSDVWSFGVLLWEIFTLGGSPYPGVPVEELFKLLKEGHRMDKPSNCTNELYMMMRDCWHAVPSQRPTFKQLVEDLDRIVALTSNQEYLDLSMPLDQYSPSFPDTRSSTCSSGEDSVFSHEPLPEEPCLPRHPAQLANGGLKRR", "assay": "Kinase selectivity test", "format": "biochemical", "conditions": "100 nM", "protocol": "as §2, §3"}, "[14]": {"target": "EGFR L858R (Homo sapiens (Human), UniProt P00533, L858R)", "assay": "Kinase selectivity test", "format": "biochemical", "conditions": "100 nM", "protocol": "as §2, §3"}, "[15]": {"target": "EGFR L858R/T790M/C797S (Homo sapiens (Human), UniProt P00533, C797S/L858R/T790M)", "assay": "Kinase selectivity test", "format": "biochemical", "conditions": "100 nM", "protocol": "as §2, §3"}, "[16]": {"target": "FGFR3 (Homo sapiens (Human), UniProt P22607)", "assay": "Kinase selectivity test", "format": "biochemical", "conditions": "100 nM", "protocol": "as §2, §3"}, "[17]": {"system": "human normal retinal cells ARPE-19", "assay": "MTT assay on human retinal cells", "format": "cell-based"}, "[18]": {"target": "IKK β (Homo sapiens (Human), UniProt O14920)", "assay": "Caliper Mobility Shift kinase inhibition test", "format": "biochemical", "method_in_brief": "(§4)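 Microfluidic mobility-shift readout of substrate conversion in HEPES pH 7.5 buffer with Brij-35, MgCl2 and DTT (1.25× stock concentrations). Inhibition taken relative to DMSO (max) and low (min) controls; IC50 from 10-point dilutions in duplicate, repeated three times.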"}, "[19]": {"target": "FLT3 (Homo sapiens (Human), UniProt P36888)", "assay": "Caliper Mobility Shift kinase inhibition test", "format": "biochemical", "conditions": "100 nM; read-out: inhibitory rate on FLT3", "method_in_brief": "as §4"}, "[20]": {"system": "human brain microvascular endothelial cells (HCMEC/D3)", "assay": "MTT assay on human neovascular cells", "format": "cell-based"}, "[21]": {"conditions": "compared with multiple positive drugs"}},
  "note": "Where two headings read alike, the source gives them in different places.",
  "data": [
    {"smiles": "CCN1CCN(c2ccc(Nc3ncc(C)c(Nc4ccc5cn[nH]c5c4)n3)cc2OC)CC1", "note": "[Compound 6i, N^2-(4-(4-ethylpiperazine-1-yl)-3-methoxyphenyl)-N^4-(1H-indazol-6-yl)-5-methylpyrimidine-2,4-diamine]", "values": [
      {"measurement": "IC50", "setting": "[1]", "value": "438 ± 1", "unit": "nM"},
      {"measurement": "IC50", "setting": "[2]", "value": "370 ± 2", "unit": "nM"},
      {"measurement": "IC50", "setting": "[3]", "value": "418 ± 17", "unit": "nM"},
      {"measurement": "IC50", "setting": "[4]", "value": "1030 ± 80", "unit": "nM"},
      {"measurement": "IC50", "setting": "[5]; Homo sapiens, MTT, read-out: Inhibitory activity (IC50) HBVP", "value": "550 ± 98", "unit": "nM"},
      {"measurement": "inhibitory activity on HBVP (in words)", "setting": "[5]; [21]", "value": "strong inhibitory activity"},
      {"measurement": "inhibition at 0.1 µM", "setting": "[6]; average, read-out: Average % inhibition BTK", "value": 50.2, "unit": "%"},
      {"measurement": "inhibition at 0.1 µM", "setting": "[6]; replicate 1, read-out: % inhibition 1 BTK", "value": 49.1, "unit": "%"},
      {"measurement": "inhibition at 0.1 µM", "setting": "[6]; replicate 2, read-out: % inhibition 2 BTK", "value": 51.3, "unit": "%"},
      {"measurement": "inhibition at 0.1 µM", "setting": "[7]; average, read-out: Average % inhibition SRC", "value": 92.2, "unit": "%"},
      {"measurement": "inhibition at 0.1 µM", "setting": "[7]; replicate 1, read-out: % inhibition 1 SRC", "value": 91, "unit": "%"},
      {"measurement": "inhibition at 0.1 µM", "setting": "[7]; replicate 2, read-out: % inhibition 2 SRC", "value": 93.5, "unit": "%"},
      {"measurement": "inhibition at 0.1 µM", "setting": "[8]; average, read-out: Average % inhibition KDR", "value": 71.4, "unit": "%"},
      {"measurement": "inhibition at 0.1 µM", "setting": "[8]; replicate 1, read-out: % inhibition 1 KDR", "value": 71.5, "unit": "%"},
      {"measurement": "inhibition at 0.1 µM", "setting": "[8]; replicate 2, read-out: % inhibition 2 KDR", "value": 71.3, "unit": "%"},
      {"measurement": "inhibition at 0.1 µM", "setting": "[9]; average, read-out: Average % inhibition FLT1", "value": 79.7, "unit": "%"},
      {"measurement": "inhibition at 0.1 µM", "setting": "[9]; replicate 1, read-out: % inhibition 1 FLT1", "value": 78.7, "unit": "%"},
      {"measurement": "inhibition at 0.1 µM", "setting": "[9]; replicate 2, read-out: % inhibition 2 FLT1", "value": 80.7, "unit": "%"},
      {"measurement": "inhibition at 0.1 µM", "setting": "[10]; average, read-out: Average % inhibition EGFR", "value": 42.3, "unit": "%"},
      {"measurement": "inhibition at 0.1 µM", "setting": "[10]; replicate 1, read-out: % inhibition 1 EGFR", "value": 40.9, "unit": "%"},
      {"measurement": "inhibition at 0.1 µM", "setting": "[10]; replicate 2, read-out: % inhibition 2 EGFR", "value": 43.6, "unit": "%"},
      {"measurement": "inhibition at 0.1 µM", "setting": "[11]; average, read-out: Average % inhibition EGFR T790M", "value": 56.9, "unit": "%"},
      {"measurement": "inhibition at 0.1 µM", "setting": "[11]; replicate 1, read-out: % inhibition 1 EGFR T790M", "value": 57, "unit": "%"},
      {"measurement": "inhibition at 0.1 µM", "setting": "[11]; replicate 2, read-out: % inhibition 2 EGFR T790M", "value": 56.8, "unit": "%"},
      {"measurement": "inhibition at 0.1 µM", "setting": "[12]; average, read-out: Average % inhibition EGFR/T790M/L858R", "value": 77.2, "unit": "%"},
      {"measurement": "inhibition at 0.1 µM", "setting": "[12]; replicate 1, read-out: % inhibition 1 EGFR/T790M/L858R", "value": 76.6, "unit": "%"},
      {"measurement": "inhibition at 0.1 µM", "setting": "[12]; replicate 2, read-out: % inhibition 2 EGFR/T790M/L858R", "value": 77.9, "unit": "%"},
      {"measurement": "inhibition at 0.1 µM", "setting": "[13]; average, read-out: Average % inhibition FGFR1", "value": 65.8, "unit": "%"},
      {"measurement": "inhibition at 0.1 µM", "setting": "[13]; replicate 1, read-out: % inhibition 1 FGFR1", "value": 65, "unit": "%"},
      {"measurement": "inhibition at 0.1 µM", "setting": "[13]; replicate 2, read-out: % inhibition 2 FGFR1", "value": 66.6, "unit": "%"},
      {"measurement": "inhibition at 0.1 µM", "setting": "[14]; average, read-out: Average % inhibition EGFR L858R", "value": 62.1, "unit": "%"},
      {"measurement": "inhibition at 0.1 µM", "setting": "[14]; replicate 1, read-out: % inhibition 1 EGFR L858R", "value": 61.7, "unit": "%"},
      {"measurement": "inhibition at 0.1 µM", "setting": "[14]; replicate 2, read-out: % inhibition 2 EGFR L858R", "value": 62.6, "unit": "%"},
      {"measurement": "inhibition at 0.1 µM", "setting": "[15]; average, read-out: Average % inhibition EGFR L858R/T790M/C797S", "value": 74.5, "unit": "%"},
      {"measurement": "inhibition at 0.1 µM", "setting": "[15]; replicate 1, read-out: % inhibition 1 EGFR L858R/T790M/C797S", "value": 73.4, "unit": "%"},
      {"measurement": "inhibition at 0.1 µM", "setting": "[15]; replicate 2, read-out: % inhibition 2 EGFR L858R/T790M/C797S", "value": 75.7, "unit": "%"},
      {"measurement": "inhibition at 0.1 µM", "setting": "[16]; average, read-out: Average % inhibition FGFR3", "value": 10.9, "unit": "%"},
      {"measurement": "inhibition at 0.1 µM", "setting": "[16]; replicate 1, read-out: % inhibition 1 FGFR3", "value": 8.1, "unit": "%"},
      {"measurement": "inhibition at 0.1 µM", "setting": "[16]; replicate 2, read-out: % inhibition 2 FGFR3", "value": 13.7, "unit": "%"},
      {"measurement": "IC50", "setting": "[17]; Homo sapiens, ARPE-19, MTT, read-out: Inhibitory activity (IC50) ARPE-19", "value": "17500 ± 370", "unit": "nM"},
      {"measurement": "inhibitory activity on ARPE-19 (in words)", "setting": "[17]; at low concentration", "value": "almost no inhibitory activity"},
      {"measurement": "IC50", "setting": "[18]", "value": 694, "unit": "nM"},
      {"measurement": "inhibition at 0.1 µM", "setting": "[19]", "value": 98.9, "unit": "%"},
      {"measurement": "IC50", "setting": "[20]; Homo sapiens, hCMEC/D3, MTT, read-out: Inhibitory activity (IC50) HCMEC-D3", "value": "230 ± 2", "unit": "nM"},
      {"measurement": "inhibitory activity on HCMEC/D3 (in words)", "setting": "[20]; [21]", "value": "strong inhibitory activity"}
    ]}
  ]
}
